RP-LC retention time data for 80 molecules are collected here from the METLIN SMRT retention time set (Domingo-Almenara et al. 2019).

The nature of the series: gradient 5% acetonitrile 3 min, to 50% in 2 min, to 85% in 15 min, held 3 min, 100 µL/min. To be noted: column: Zorbax Extend-C18 2.1 x 50 mm; eluents: water / acetonitrile, 0.1% formic acid. The method, boiled down:
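Standards, all pure, were combined into mixtures of ~100 molecules and run at 100 μL/min on a Zorbax Extend-C18 column (2.1 × 50 mm, 1.8 μm) with water and acetonitrile, each containing 0.1% formic acid. A coupled quadrupole time-of-flight mass spectrometer operated in positive and negative ionization mode. Retention time values come from computationally picked adduct peaks, each inspected manually.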
Molecule `CCc1ccc(N2CC(c3noc(-c4cccs4)n3)CC2=O)cc1` (stereo not given) registered an RP-LC retention time of 1010 s.

`CCOC(=O)COc1cc(-c2ccc(C)cc2)nc2ccc(NC(=O)C3CC3)cc12` gave an RP-LC retention time of 776 s.

`CCCn1c(=O)sc2cc(S(=O)(=O)N3CCC(C(=O)Nc4ccccc4)CC3)ccc21` registered an RP-LC retention time of 965 s.

In turn, `CCOC(=O)c1noc2ncnc(N3CCCCCC3)c12` registered an RP-LC retention time of 954 s.

`CN1CCN(CC2(O)CCC3(CCN(C(=O)c4ccoc4)CC3)CC2)CC1` had an RP-LC retention time of 551 s.

Turning to `CCN1c2cc(C(=O)NC3CCN(Cc4ccccc4)CC3)ccc2C(=O)N2CCCCC21` (stereo not given), the RP-LC retention time came out at 638 s.

`CCOC(=O)c1c(C)oc2nc(C)nc(NCc3ccc(CC)cc3)c12` had an RP-LC retention time of 1370 s.

Molecule `O=C(NCc1ccc(S(=O)(=O)N2CCCC2)s1)c1cccc(-c2nnc(-c3ccccc3)o2)c1` had an RP-LC retention time of 948 s.

Turning to `Cc1nc(-c2ccccc2)nn1C1CCN(S(=O)(=O)c2cccnc2)C1` (stereo not given), the RP-LC retention time is 716 s.

Consider `Cc1ccc(NC(=O)N2CCC3(CC2)NC(=O)c2ccccc2O3)cc1Cl`, for which the RP-LC retention time amounted to 831 s.

Molecule `CC1CCC(NC(=O)c2cn(-c3ccc(NC(=O)C4CC4)cn3)cn2)CC1` (stereo not given) displayed an RP-LC retention time of 790 s.

Turning to `CCCCc1ccc(N2CCn3c2nc2c3c(=O)n(CC(=O)O)c(=O)n2C)cc1`, the RP-LC retention time was found to be 826 s.

In turn, `O=C(Nc1nc2c(s1)CN(C(=O)C1CC=CCC1)CC2)c1cccs1` (stereo not given) came in with an RP-LC retention time of 770 s.

For `CCOc1ccccc1NC(=O)N1CCc2nc(-c3ccc(OC)cc3)ncc2C1`, the RP-LC retention time is 1000 s.

`COc1ccc(NC(=O)Cn2c(=O)c(CCC(=O)NC3CCCCC3)nc3ccccc32)c(OC)c1` registered an RP-LC retention time of 839 s.

As to `O=C(Nc1cccc(OCc2nnc(-c3ccc(Cl)cc3)o2)c1)c1ccoc1`, the RP-LC retention time amounted to 970 s.

In turn, `CCCNc1cc(N2CCC(CCC(=O)NCc3ccccn3)CC2)ncn1` gave an RP-LC retention time of 556 s.

Regarding `COc1ccc(OC)c(CNC(=O)Cc2nnc(-c3ccc4ncccc4c3)o2)c1`, the RP-LC retention time worked out at 688 s.

`Cc1c(C(=O)N2CCN(C(=O)COc3ccccc3)CC2)[nH]c2ccccc12` displayed an RP-LC retention time of 819 s.

The molecule `CCOc1ccc(NC(=O)Cn2nc(N3CCCC3)c3ccccc3c2=O)cc1` displayed an RP-LC retention time of 809 s.

Consider `COCCc1noc(C2Cc3ccccc3N2C(=O)Nc2ccc3c(c2)OCCO3)n1` (stereo not given), for which the RP-LC retention time worked out at 860 s.

For the molecule `CC(C)CN1C(=O)c2cccn2CC1C(=O)NCCCN1CCN(C)CC1` (stereo not given), the RP-LC retention time was determined as 548 s.

With `Cn1cc(C(CNC(=O)Nc2ccccc2)c2cccnc2)c2ccccc21` (stereo not given), the RP-LC retention time worked out at 680 s.

The molecule `Cc1cccc(-c2noc(-c3sc4ncn(CC(=O)N5CCCC5)c(=O)c4c3C)n2)c1` yielded an RP-LC retention time of 1020 s.

Molecule `CCOC(=O)c1c(N)n(Cc2cccc(OC)c2)c2nc3ccccc3nc12` yielded an RP-LC retention time of 750 s.

On to `Cn1nc(C(=O)Nc2ccc(CC(=O)NCC(F)(F)F)cc2)ccc1=O`, for which the RP-LC retention time stood at 622 s.

Turning to `CN(C)C(=O)c1ccc2c(c1)nnn2CCNC(=O)Nc1ccc(Br)cc1F`, the RP-LC retention time was found to be 703 s.

In turn, `O=C(Cc1csc2nc(-c3ccccc3)cn12)NC1CCCCCCC1` showed an RP-LC retention time of 877 s.

Turning to `COc1ccccc1N1CCN(C(=O)c2nnc(-c3ccc(S(=O)(=O)N4CCCC4)cc3)o2)CC1`, the RP-LC retention time came to 972 s.

`Cc1ccsc1C(=O)N1CCC2(CC1)N=C(c1cccc(Br)c1)NO2` came in with an RP-LC retention time of 922 s.

In turn, `O=C(c1cn(-c2cc(N3CCOCC3)ncn2)cn1)N1CCSCC1` showed an RP-LC retention time of 685 s.

As for `Cc1ccccc1Nc1c(-c2ccc(N3CCOCC3)cc2)nc2ccc(Br)cn12`, the RP-LC retention time was found to be 795 s.

As to `Cc1ccc(-c2nc3cnccn3c2Nc2ccc(C)cc2C)cc1`, the RP-LC retention time is 1070 s.

`COc1ccc(Cc2nnc(NC(=O)c3cnc4ccccc4n3)o2)cc1` had an RP-LC retention time of 722 s.

For the molecule `CC(Oc1ccc(Cl)cc1)C(=O)N1CCN(c2cc(-c3ccccc3)[nH]n2)CC1` (stereo not given), the RP-LC retention time was found to be 884 s.

Consider `Cc1nn(C)c(C)c1CNC(=O)CN1CCN(Cc2ccc(F)cc2)C1=O`, for which the RP-LC retention time was found to be 623 s.

On to `CC1CCCN(Cc2nc(-c3ccc(N4CCSCC4)nc3)no2)C1` (stereo not given), for which the RP-LC retention time came to 856 s.

Take `CCCC(=O)Nc1ccc2nc(N3CCN(c4cc(Cl)ccc4C)CC3)cc(C(=O)O)c2c1`: the RP-LC retention time turned out to be 746 s.

Molecule `Cc1c(-c2nnc(C(=O)NCCN3CCCCCC3)o2)oc2ccccc12` registered an RP-LC retention time of 667 s.

`CCN(CC)S(=O)(=O)c1ccc(NC(=O)N2CCC(C(=O)Nc3ccc(Cl)cc3)CC2)s1` registered an RP-LC retention time of 931 s.

For the molecule `CCNc1cc(N2CCCC(CCC(=O)NC(C)C)C2)ncn1` (stereo not given), the RP-LC retention time was found to be 601 s.

Take `CC(=O)Nc1ccc(Cc2nc(-c3ccc4c(c3)oc(=O)n4C)no2)cc1`: the RP-LC retention time was determined as 729 s.

`COc1cccc(N2C=C(C(=O)N3CCCC3)S(=O)(=O)c3ccc(F)cc32)c1` came in with an RP-LC retention time of 819 s.

Take `CCOc1ccccc1NC(=O)C1CCN(S(=O)(=O)c2cn(C)cn2)CC1`: the RP-LC retention time was 868 s.

As for `CCn1cc(-c2ccc(OC)cc2)cc1C(=O)NC(C)c1cccnc1` (stereo not given), the RP-LC retention time came to 693 s.

`CCc1ccc(S(=O)(=O)c2cnc(N3CCCC(C)C3)nc2N)cc1` (stereo not given) showed an RP-LC retention time of 1150 s.

On to `COCCNC(=O)NCC1(c2ccccc2)CCOCC1`, for which the RP-LC retention time was 615 s.

As to `COC(=O)c1c(NCc2ccc(OC)cc2)c2cccc(Cl)c2[nH]c1=O`, the RP-LC retention time turned out to be 788 s.

In the case of `CN1C(=O)c2cc(C(=O)Nc3cccc(Cl)c3)nn2CC1(C)C(=O)NC1CCCCC1` (stereo not given), the RP-LC retention time is 860 s.

`Cc1ccc(C)c(S(=O)(=O)N2CCC(c3noc(COCC4CC4)n3)CC2)c1` yielded an RP-LC retention time of 1100 s.

Molecule `CCc1ccccc1NC(=O)N1C[C@H](c2nc(-c3ccccc3)no2)[C@@H](C)C1` yielded an RP-LC retention time of 1040 s.

Consider `Cc1ccc(C)c(NC(=O)Cc2csc(C)n2)c1`, for which the RP-LC retention time amounted to 788 s.

The molecule `O=C(c1cn(-c2cccc(Cl)c2)nn1)N1CCN(c2ccccc2F)CC1` displayed an RP-LC retention time of 882 s.

`CC1(C)CC(=O)c2cn(-c3ccc(F)cc3)c(=O)c(C(=O)NC3CC3)c2C1` displayed an RP-LC retention time of 814 s.

`COc1ccc(NC(=O)c2cc(C(F)(F)F)n(C)n2)c(OC)c1` showed an RP-LC retention time of 998 s.

In turn, `Cn1c(=O)c(=O)n(C)c2cc(N3CCOCC3)c(NC(=O)C3CC3)cc21` came in with an RP-LC retention time of 623 s.

For `COc1ccc(-c2nnc(-c3ccccc3)o2)cc1S(=O)(=O)N1CCSCC1`, the RP-LC retention time is 955 s.

For the molecule `CCC(=O)N1CCc2c([nH]c3ccccc23)C12C(=O)N(C)c1ccccc12` (stereo not given), the RP-LC retention time was determined as 828 s.

As for `Cc1ccc(Nc2ncccc2S(N)(=O)=O)cc1Cl`, the RP-LC retention time came out at 924 s.

On to `CNC(=O)C1CCCN(c2nc3ncn(CC(=O)Nc4ccc(F)cc4Cl)c(=O)c3s2)C1` (stereo not given), for which the RP-LC retention time was 650 s.

`O=C(CN1C(=O)c2ccccc2C1=O)Nc1nnc(-c2ccc3c(c2)CCCC3)o1`: the RP-LC retention time came out at 856 s.

On to `Cc1ccc(Nc2c(-c3ccc(Cl)cc3)nc3cnccn23)c(Br)c1`, for which the RP-LC retention time is 1170 s.

Molecule `COc1ccc(OCc2noc(CNS(=O)(=O)c3ccc(NC(C)=O)cc3)n2)cc1` displayed an RP-LC retention time of 710 s.

As for `COc1ccc(Cc2cnc(NC(=O)C3COc4ccccc4C3)s2)cc1` (stereo not given), the RP-LC retention time was determined as 952 s.

Turning to `CCOCCCNC(=O)C1CCN(c2nccnc2Oc2cccc(C)c2)CC1`, the RP-LC retention time is 861 s.

For `CCOc1ccc(S(=O)(=O)N2CCCC(C(N)=O)C2)cc1C` (stereo not given), the RP-LC retention time is 747 s.

Molecule `Cc1noc(C)c1CCNC(=O)c1cc(-c2cccnc2)nc2ccccc12` registered an RP-LC retention time of 652 s.

For the molecule `CCN(CC)c1ncnc2c(-c3ccccc3)cn(CC(=O)NCC3CCCO3)c12` (stereo not given), the RP-LC retention time is 666 s.

In the case of `CCc1ccc2nc(NC3=NCN(CCCOC)CN3)nc(C)c2c1`, the RP-LC retention time was 694 s.

`O=C(NC1CCCCCC1)C1CCCN(c2ccc(=O)n(-c3cccc(Cl)c3)n2)C1` (stereo not given) yielded an RP-LC retention time of 966 s.

`Cc1cccc(CNC(=O)c2cc3n(n2)CC(C)(C(=O)NC2CCCC2)N(C)C3=O)c1` (stereo not given) came in with an RP-LC retention time of 731 s.

With `CCNc1nc(-c2ccc(Br)cc2)cs1`, the RP-LC retention time stood at 887 s.

The molecule `CCOc1ccc(CNC(=O)C2=Cc3cc(OC)ccc3OC2)cc1OC` showed an RP-LC retention time of 861 s.

The molecule `CC(C)(C)c1csc(-c2csc(S(=O)(=O)NCc3ccc(F)c(Cl)c3)c2)n1` displayed an RP-LC retention time of 1280 s.

Molecule `COc1cccc(NC(=O)NC2CCN(c3ccc(C)c(C)c3)C2=O)c1` (stereo not given) had an RP-LC retention time of 854 s.

Molecule `CC(C)CN1C(=O)c2ccccc2C(C(=O)NCCCN2CCCC2=O)C1c1cccs1` (stereo not given) had an RP-LC retention time of 740 s.

With `O=C(Cn1ccc2ccccc21)Nc1ccc2cn[nH]c2c1`, the RP-LC retention time was found to be 726 s.

The molecule `O=C(NCc1cccnc1)C(=O)NCc1ccc2c(c1)OCO2` came in with an RP-LC retention time of 588 s.

`CN1C(=O)c2cc(C(=O)N3CCCCC3)nn2CC1(C)C(=O)NC1CCCCCC1` (stereo not given) returned an RP-LC retention time of 782 s.

Molecule `O=C(Nc1ccc(Cn2cncn2)cc1)c1ccccn1` gave an RP-LC retention time of 654 s.
